Measurements taken from patent US20240299345A1, “GINKGOLIDE B AND ITS DERIVATIVES FOR INHIBITING AND/OR REVERSING AGING” (CHINA MEDICAL UNIVERSITY, priority 2023, published 2024).

Columns and labels:
[1] = system: 20-month-old aged female C57BL/6 mice; assay: Aging-related skeletal muscle wasting in aged mice; assay type: in vivo, mouse
Protocol: RIPA buffer (#ab156034, Abcam) containing 1X protease/phosphatase inhibitor (#1861281, Thermo Fisher Scientific) was used to lyse samples. Protein content was measured by BCA Protein Assay Kit (#23225, Thermo Fisher Scientific). Samples were loaded and separated in polyacrylamide gels and then transferred to PVDF membranes (#IPVH00010, Merck Millipore, Massachusetts, USA). The membranes were incubated with 5% BSA at room temperature for one hour and then incubated with primary antibodies overnight at 4° C., and then incubated with HRP-conjugated secondary antibodies (#SA00001-1, #SA100002-1, Proteintech, Rosemont, IL, USA) for one hour at room temperature. Signals were detected by the chemiluminescent substrate (#34095, Thermo Fisher Scientific) and were acquired by the ChemiDoc MP imaging system (Bio-Rad, Hercules, CA, USA).
(§1) Serum was collected by cardiac puncture upon sacrifice.
RNAs were purified by using the TRIzol® (#15596018, Invitrogen) and chloroform method (#C7559, Sigma-Aldrich) and reversed transcribed using High-Capacity cDNA Reverse Transcription Kit (#4368814, Applied Biosystems, Foster City, CA, USA). The quantitative RT-PCR was conducted with universal probe system (Roche Life Science, Indianapolis, IN, USA) by using a QuantStudio™ 7 Flex Real-Time PCR System (Applied Biosystems) and was normalized by the expression of GAPDH.
To investigate whether GB improves healthspan, we administered GB to 20-month-old aged mice, equivalent to 70-80-year-old humans, which is more relevant to potential clinical applications than intervention starting from young adulthood (Wang, S., Lai, X., Deng, Y. & Song, Y. Correlation between mouse age and human age in anti-tumor research: Significance and method establishment. Life Sci 242, 117242, doi: 10.1016/j.lfs.2019.117242 (2020)). After GB administration for two months, we assessed the healthspan domains in terms of sarcopenia, physical activity, metabolic health, frailty index, and inflammation (FIG. 2A) according to the criteria in clinical practice (Shamliyan, T., Talley, K. M., Ramakrishnan, R. & Kane, R. L. Association of frailty with survival: a systematic literature review. Ageing Res Rev 12, 719-736, doi: 10.1016/j.arr.2012.03.001 (2013)). As expected, circulating osteocalcin levels were decreased in aged mice, while GB administration increased osteocalcin levels (FIG. 2B, p<0.0001) toward the levels of those in young mice. […] In line with muscle loss, aging led to a decreased in total protein content (FIG. 2H, p<0.0001) in skeletal muscle with upregulation of muscle atrophy markers, Fbxo32 and Trim63, at transcript (FIG. 2K, p<0.0001 and=0.0005, respectively) and protein levels. (FIG. 2L, p=0.0182 and 0.0003, respectively). […] GB reversed the infiltration of adipose-like tissues by aging (FIGS. 2D and 2G, p=0.0012). […] GB administration reversed aging-related muscle wasting (FIG. 2K).

[2] = system: gastrocnemius (GA) muscle; assay: Ex vivo muscle contractility and fatigability of GA muscle from treated aged mice; assay type: in vivo, mouse; settings: GB 2 months
Protocol: For the ex vivo muscle function test, the isolated right side gastrocnemius (GA) muscle were incubated in Krebs buffer at room temperature and with 95% O2 and 5% CO2 for five minutes. GA muscle received stimuli three times under the optimal length to evaluate twitch force. Three 150 Hz continuous stimuli were given to evaluate tetanic force. Twitch force and tetanic force were normalized to the cross-section area (CSA) of GA muscle. GA muscle fatigue was measured by repeated isometric tetanic contraction every 5 seconds for a total of 60 contractions. Five minutes and ten minutes after fatigue protocol, the maximal tetanic force was measured to assess post-fatigue recovery. All of the results were recorded with the Dynamic Muscle Control system (DMC v5.4; Aurora Scientific, Inc.), and results were analyzed by the Dynamic Muscle Analysis system (DMA v3.2; Aurora Scientific, Inc.).

[3] = system: skeletal muscle of aged C57BL/6 mice; assay: Muscle histology (fiber type, oil red O, Masson's trichrome, central nuclei) and vascular network in aged mice; assay type: in vivo, mouse; settings: GB 2 months
Protocol: Body composition was measured by Minispec LF50 TD-NMR (Bruker, MA, USA) based on nuclear magnetic resonance methods. Briefly, mice were anesthetized for the duration of the procedure by 3% isoflurane (Zoctis, London, UK) and placed in the scanning chamber in the prone position, with the limbs and tail stretched away from the body. The analysis would be conducted by default software per manufacturer's protocol. The vascular networks […] were quantified by in vivo micro-computed tomography (U-CT, Milabs, Netherlands). Briefly, mice intravenously received 150 μL ExiTron™ nano 12000 (#130-095-698, Miltonic Biotec GmbH, Bergisch Gladbach, Germany), and then mice were anesthetized with isoflurane before being positioned on the scanning chamber. After scanning, the blood vessels were analyzed by a curved multiplanar reconstruction algorithm by using Osirix software (Bernex, Switzerland).

[4] = system: circulating inflammatory cytokines and chemokines; assay: Serum 40-plex cytokine/chemokine panel in aged mice; assay type: in vivo, mouse; settings: of 40 detected, GB 2 months
Text: as §1

[5] = system: 20-month-old female C57BL/6 mice; assay: Lifespan and cancer incidence analysis, lifelong GB from 20 months of age; assay type: in vivo, mouse
Text: The mice were not involved in any experiments to maximally reduce potential interference and stress to animals.

[6] = system: kidney, heart, spleen and liver in aged mice; settings: mouse, in vivo
Protocol: (§2) All animals were purchased from Laboratory Animal Services Centre, the Chinese University of Hong Kong, ad libitum fed the standard diet (#5V0f, LabDiet, St. Louis, MO, USA), and housed at specific-pathogen-free and humidity-controlled conditions under a 12 light: 12 dark photoperiod with temperature at 20-22° C. Animals were kept up to five per cage and were randomly assigned to control and experimental groups in all experiments. […] For the short-term experiment, 3-(young), 6-(adult) and 20-month-old (aged) female C57BL/6 mice were administered 12 mg/kg body weight GB (#G6910, Sigma-Aldrich, St. Louis, MO, USA) or vehicle daily by oral gavage for two months. […] GB was diluted to the appropriate concentration in 100 μL of sterile PBS (#10378016, Gibco, Waltham, MA, USA).
(§3) Tissue samples were harvested and embedded in paraffin or in OCT (#4583, Sakura Finetek USA, Torrance, CA, USA). For paraffin-embedded samples, 10 μm sections were deparaffinized by xylene and alcohol gradient treatment and were then hydrated by distilled water and processed for heat-induced antigen retrieval with antigen retrieval solution at 70° C. for 1.5 hours before staining. For OCT-embedded samples, 10 μm sections were hydrated by distilled water before staining. Hematoxylin and cosin staining (#MHS16 and #HT110116 Sigma-Aldrich), oil red O staining (#00625, Sigma-Aldrich), and Masson's trichrome staining (#HT15, Sigma-Aldrich) were used to assess the histology, lipid droplet, and collagen deposition. For immunohistochemical staining, antigen-retrieval samples were blocked with 5% bovine serum albumin (BSA) (#A9647, Sigma-Aldrich) for 1 hour at room temperature and incubated with primary antibodies overnight at 4° C., followed by a ready-to-use IHC/ICC Kit (#K405, BioVision, Milpitas, CA, USA) at room temperature. The samples were then suspended with double-distilled water and then stained with hematoxylin. For immunocytochemical staining, samples were blocked with 5% BSA (Sigma-Aldrich) for 1 hour at room temperature and incubated with primary antibodies overnight at 4° C., then washed with PBS for ten minutes, and then incubated with secondary antibody for 1 hour at room temperature, then washed with PBS three times for ten minutes.

[7] = system: kidney, heart, spleen and liver in aged mice; assay: Organ pathology, blood chemistry and tolerability after 2 months of GB in mice
Protocol: as §2, §3

CC1C(=O)OC2C(O)C34C5CC(C(C)(C)C)C36C(OC(=O)C6O)OC4(C(=O)O5)C12O (centres unmarked) [GB, Ginkgolide B] was tested, and the circulating osteocalcin levels ([1]; aged (20-month-old) female mice, GB 12 mg/kg daily oral 2 months vs vehicle-aged, p<0.0001) was “increased”, the skeletal muscle-to-body ratio ([1]; aged mice, GB 12 mg/kg daily oral 2 months vs vehicle-aged) was “significantly increased” and the “infiltration of adipose-like tissues by aging” value ([1]; aged mice, GB 12 mg/kg daily oral 2 months, p=0.0012) was “reversed”. For the same molecule, the “myofiber CSA” value ([1]; aged mice, quadriceps, GB 12 mg/kg daily oral 2 months vs vehicle-aged, p=0.0032) was “significantly increased”, the “total protein content in aged skeletal muscle” value ([1]; gastrocnemius, aged mice, GB 12 mg/kg daily oral 2 months, p<0.0001) was “increased” and the “expression level of Trim63 (mRNA and protein)” value ([1]; gastrocnemius, aged mice, GB 2 months, p=0.0039 and 0.0003) was “significant downregulation”. For the same molecule, the “expression level of Fbxo32 (mRNA and protein)” value ([1]; gastrocnemius, aged mice, GB 2 months, p=0.0078 and 0.0182) was “significant downregulation”, the absolute tetanic force [2] was “significantly enhanced” and the absolute twitch force [2] was “significantly enhanced”. The “time to maximum force” value ([2]; p=0.0003) was “reversed the increased time to maximum force to the youth levels”, the “specific force (normalized to muscle mass)” value ([2]; p=0.1161 and 0.1935) was “modest increased” and the “fatigue resistance or recovery rate” value ([2]; p=0.99 at five and ten minutes) was “did not alter”. For the same molecule, the capillary density ([3]; CD31 staining of quadriceps, p=0.0492) was “dramatically enlarges”, the “aging-related changes in fiber-type switching” value ([3]; GA muscle, in particular type 1 and 2B myofibers) was “partially reversed” and the “number of central myonuclei in aged myofibers” value ([3]; p=0.0011) was “reduced”. The “collagen deposition in muscle” value ([3]; Masson's trichrome, GA muscle, p=0.0004) was “reduced”, the deep femoral artery ([3]; micro-CT, p=0.012) was “dramatically enlarges” and the intramuscular lipid infiltration ([3]; oil red O, GA muscle, p=0.01) was “reduced”. The “number of circulating proteins significantly altered” value [4] was 12, the “age at 50% cumulative cancer incidence” value ([5]; GB group, vehicle 891 days, p=0.0002 log-rank) was 1025 days and the aging-associated mortality ([5]; GB vs vehicle aged mice) was “delayed”. For the same molecule, the “hazard ratio by Mantel-Haenszel” value ([5]; GB vs vehicle aged mice) was 0.4577, the “hazard ratio by log-rank test” value ([5]; GB vs vehicle aged mice) was 0.3526 and the “macroscopic tumors detected by necropsy” value ([5]; GB-aged mice compared with vehicle group) was “less macroscopic tumors”. The median lifespan extension ([5]; from the inception of GB administration at 20 months, 12 mg/kg daily, p=0.0002 log-rank, 0.0064 Gehan-Breslow-Wilcoxon) was 30%, the “lifespan extension (summary statement)” value ([5]; lifelong oral GB in mice starting from 20 months old) was 20% and the “median lifespan extensions by tumor incidence” value ([5]; p=0.0011 and 0.03 by log-rank test) was “observed in both tumor and non-tumor cohorts”. For the same molecule, the “extension of mean maximal lifespans of the 10% and 20% longest-lived mice” value ([5]; p=0.0286 and 0.0006) was “around 55 days”, the “circulating GOT, GPT and UA” value [6] was “reduction” and the “liver and spleen size” value [6] was “no effect”. The “collagen deposition in multiple organs” value ([7]; Masson's trichrome, aged mice) was “reduced”, the severe acute toxicity ([7]; adult, aged or OVX mice, none of the treated mice dying during the two months of GB administration) was “did not find severe acute toxicity” and the “compensatory hypertrophy of the kidney and heart” value ([7]; aged mice, GB 2 months) was “decreased”. For the same molecule, the “aging-related compensatory hypertrophy of glomerulus” value ([7]; aged mice, histopathology, p<0.0001) was “reduced”, the “aging-related compensatory hypertrophy of cardiomyocytes” value ([7]; aged mice, histopathology, p=0.0018) was “reduced” and the “reduction of aging-related hepatic lipid accumulation” value ([7]; aged mice, p<0.0001) was 3.8 fold. The “decrease in white pulp and white pulp/red pulp ratio in aged spleen” value ([7]; aged mice, p<0.0001 and p=0.0143) was “ameliorated” and the “number of hepatic microgranulomas” value ([7]; aged mice, p=0.0031) was “decreased”.
